# From patent publication US8877707B2, “Inhibitors of HCV NS5A” (Presidio Pharmaceuticals, Inc., priority 2010, dated 2014)
# Like-named read-outs stand apart in the source and are kept apart here.
# Tested on: HCV genotype 1b replicon in Huh 7 cells
# Experiment: HCV replicon assay (1b_Huh-Luc/Neo-ET cell line, luciferase readout)
# Type: cell-based
# Settings: Hepatitis C virus, read-out: Inhibition of HCV genotype 1b
# Experimental: Biological activity of the compounds of the invention was determined using an HCV replicon assay. The 1b_Huh-Luc/Neo-ET cell line persistently expressing a bicistronic genotype 1b replicon in Huh 7 cells was obtained from ReBLikon GMBH. This cell line was used to test compound inhibition using luciferase enzyme activity readout as a measurement of compound inhibition of replicon levels.
# On Day 1 (the day after plating), each compound is added in triplicate to the cells. Plates incubated for 72 h prior to running the luciferase assay. Enzyme activity was measured using a Bright-Glo Kit (cat. number E2620) manufactured by Promega Corporation. The following equation was used to generate a percent control value for each compound. % Control=(Average Compound Value/Average Control)*100
# The EC50 value was determined using GraphPad Prism and the following equation: Y=Bottom+(Top−Bottom)/(1+10^((Log IC50−X)*HillSlope))
# EC50 values of compounds are repeated several times in the replicon assay.
# [1] = Table 1, genotype 1b replicon, Huh 7 cells, 72 h, luciferase
# [2] = Table 2, genotype 1b replicon, Huh 7 cells, 72 h, luciferase
SMILES,EC50 [1],"EC50 (Huh-7, HCV 1b replicon)",also measured
COC(=O)N[C@H](C(=O)N1CCC[C@H]1c1nc2ccc(-c3ccc4cc(-c5cnc([C@@H]6CCCN6C(=O)[C@H](NC(=O)OC)c6ccccc6)[nH]5)ccc4n3)cc2[nH]1)C(C)C [compound 196],< 1 nM,–,–
CC[C@@H](C)[C@H](NC(=O)OC)C(=O)N1CCC[C@H]1c1ncc(-c2ccc3cc(-c4cnc5nc([C@@H]6CCCN6C(=O)[C@@H](NC(=O)OC)[C@H](C)CC)[nH]c5c4)ccc3c2)[nH]1 [compound 405],–,–,EC50 [2]: < 1 nM
COC(=O)N[C@H](C(=O)N1CCC[C@H]1c1ncc(-c2ccc3cc(-c4ccc5nc([C@@H]6CCCN6C(=O)[C@@H](NC(=O)OC)[C@@H](C)OC)[nH]c5n4)ccc3c2)[nH]1)[C@@H](C)OC [compound 530],–,< 1 nM,–
COC(=O)N[C@H](C(=O)N1CCC[C@H]1c1nc(-c2ccc3cc(-c4ccc(-c5cnc([C@@H]6CCCN6C(=O)[C@@H](NC(=O)OC)C(C)C)[nH]5)cc4C)ccc3c2)c[nH]1)C(C)C [compound 85],< 1 nM,–,–
COC[C@H](NC(=O)OC)C(=O)N1CCC[C@H]1c1ncc(-c2ccc3cc(-c4ccc(-c5cnc([C@@H]6CCCN6C(=O)[C@H](NC(=O)OC)c6cccs6)[nH]5)cc4)ccc3c2)[nH]1 [compound 496],–,< 1 nM,–
COC(=O)N[C@H](C(=O)N1CCC[C@H]1c1nc(-c2ccc3cc(-c4ccc(-c5cnc([C@@H]6CCCN6C(=O)[C@H](NC(=O)N6CC[C@H](O)C6)c6ccccc6)[nH]5)cc4)ccc3c2)c[nH]1)C(C)C [compound 16],< 1 nM,–,–
COC(=O)N[C@H](C(=O)N1CCC[C@H]1C(=O)N[C@@H](C)c1ccc(-c2ccc3cc(-c4cnc([C@@H]5CCCN5C(=O)[C@@H](NC(=O)OC)[C@@H](C)OC)[nH]4)ccc3c2)cc1)[C@@H](C)OC [compound 558],–,< 1 nM,–
COC(=O)N[C@H](C(=O)N1CCC[C@H]1c1ncc(-c2ccc(-c3ccc4cc(-c5cnc([C@@H]6CCCN6C(=O)[C@@H](NC(=O)OC)[C@@H](C)OC)[nH]5)ccc4c3)cc2)[nH]1)C(C)C [compound 481],–,< 1 nM,–
COC(=O)N[C@H](C(=O)N1CCC[C@H]1c1ncc(-c2ccc(-c3ccc4cc(-c5c[nH]c([C@@H]6CCCN6C(=O)[C@H](NC(=O)OC)c6ccccc6)n5)cnc4c3)nc2)[nH]1)C(C)C [compound 60],< 1 nM,–,–
COC(=O)N[C@H](C(=O)N1CCC[C@H]1c1ncc(-c2ccc3cc(-c4ccc(-c5cnc([C@@H]6CCCN6C(=O)[C@H](NC(=O)OC)c6ccccc6)[nH]5)cn4)ccc3c2)[nH]1)[C@@H](C)OC [compound 480],–,< 1 nM,–
COC(=O)N[C@H](C(=O)N1CCC[C@H]1C(=O)N[C@@H](C)c1ccc(-c2ccc3cc(-c4cnc([C@@H]5CCCN5C(=O)[C@@H](NC(=O)OC)C(C)C)[nH]4)ccc3c2)cc1)C(C)C [compound 557],–,< 1 nM,–
COC(=O)N[C@H](C(=O)N1CCC[C@H]1c1ncc(-c2ccc(-c3ccc4cc(-c5c[nH]c([C@@H]6CCCN6C(=O)[C@@H](NC(=O)OC)C6CCOCC6)n5)ccc4c3)c(F)c2)[nH]1)C(C)C [compound 68],< 1 nM,–,–
CCNC(=O)N[C@@H](C(=O)N1CCC[C@H]1c1ncc(-c2ccc(-c3ccc4cc(-c5c[nH]c([C@@H]6CCCN6C(=O)[C@@H](NC(=O)OC)C(C)C)n5)ccc4n3)cc2)[nH]1)c1ccccc1 [compound 33],< 1 nM,–,–
COC(=O)N[C@H](C(=O)N1CCC[C@H]1c1ncc(-c2ccc3c(-c4ccc5[nH]c([C@@H]6CCCN6C(=O)[C@@H](NC(=O)OC)C(C)C)nc5c4)cccc3c2)[nH]1)C(C)C [compound 214],10 to 999 nM,–,–
COC(=O)N[C@H](C(=O)N1CCC[C@H]1c1ncc(-c2ccc3nc(-c4ccc5nc([C@@H]6CCCN6C(=O)[C@H](NC(=O)OC)c6ccccc6)[nH]c5c4)ccc3c2)[nH]1)C(C)C [compound 197],< 1 nM,–,–
COC(=O)N[C@H](C(=O)N1CCC[C@H]1c1nc(-c2ccc3cc(-c4ccc(-c5cnc([C@@H]6CCCN6C(=O)[C@@H](NC(=O)OC)C(C)C)[nH]5)cc4)ccc3c2)c[nH]1)C(C)C [compound 1],< 1 nM,–,–
COC(=O)N[C@H](C(=O)N1CCC[C@H]1c1ncc(-c2cnc3cc(-c4ccc5nc([C@@H]6CCCN6C(=O)[C@H](NC(=O)OC)c6ccccc6)[nH]c5c4)ccc3c2)[nH]1)C(C)C [compound 188],1 to 9.9 nM,–,–
COC(=O)N[C@@H](C)C(=O)N1CCC[C@H]1c1nc(-c2ccc3nc(-c4ccc(-c5cnc([C@@H]6CCCN6C(=O)[C@@H](NC(=O)OC)C(C)C)[nH]5)cc4)ccc3c2)c[nH]1 [compound 41],< 1 nM,–,–
COC(=O)N[C@H](C(=O)N1CCC[C@H]1c1nc(-c2cnc3cc(-c4ccc(-c5cnc([C@@H]6CCCN6C(=O)[C@@H](NC(=O)OC)C(C)C)[nH]5)cc4F)ccc3c2)c[nH]1)C(C)C [compound 57],< 1 nM,–,–

SMILES,EC50 [1],"EC50 (Huh-7, HCV 1b replicon)",also measured
COC(=O)N[C@H](C(=O)N1CCC[C@H]1c1ncc(-c2ccc3nc(-c4ccc(-c5cnc([C@@H]6CCCN6C(=O)[C@H](NC(=O)OC6CCOCC6)c6ccccc6)[nH]5)c(F)c4)ccc3c2)[nH]1)C(C)C [compound 452],–,< 1 nM,–
COC(=O)N[C@H](C(=O)N1CCC[C@H]1c1nc2ccc(-c3ccc4cc(-c5cnc([C@@H]6CCCN6C(=O)[C@@H](NC(=O)OC)C6CCOCC6)[nH]5)ccc4n3)cc2[nH]1)C(C)C [compound 194],< 1 nM,–,–
C=CC[C@H](NC(=O)OC)C(=O)N1CCC[C@H]1c1ncc(-c2ccc3nc(-c4ccc(-c5cnc([C@@H]6CCCN6C(=O)[C@H](NC(=O)OC)c6ccccc6)[nH]5)cc4F)ccc3c2)[nH]1 [compound 486],–,< 1 nM,–
CCC(CC)[C@H](NC(=O)OC)C(=O)N1CCC[C@H]1c1ncc(-c2ccc3cc(-c4ccc5nc([C@@H]6CCCN6C(=O)[C@@H](NC(=O)OC)C(CC)CC)[nH]c5n4)ccc3c2)[nH]1 [compound 520],–,< 1 nM,–
COC(=O)N[C@H](C(=O)N1CCC[C@H]1c1ncc(-c2ccc(-c3ccc4cc(-c5cnc([C@@H]6CCCN6C(=O)[C@H](NC(=O)OC(C)(C)C)c6ccccc6)[nH]5)ccc4n3)c(F)c2)[nH]1)C(C)C [compound 122],< 1 nM,–,–
COC(=O)N[C@H](C(=O)N1CCC[C@H]1C(=O)NCc1ccc(-c2ccc3cc(-c4cnc([C@@H]5CCCN5C(=O)[C@@H](NC(=O)OC)C(C)C)[nH]4)ccc3n2)cc1)C(C)C [compound 546],–,10 to 999 nM,–
COC(=O)N[C@H](C(=O)N1CCC[C@H]1c1nc(-c2cnc3cc(-c4ccc(-c5cnc([C@@H]6CCCN6C(=O)[C@H](NC(=O)OC)c6ccccc6)[nH]5)cc4)ccc3c2)c[nH]1)C1CCOCC1 [compound 71],< 1 nM,–,–
COC(=O)N[C@H](C(=O)N1CCC[C@H]1c1ncc(-c2ccc3cc(-c4ccc(-c5cnc([C@@H]6CCCN6C(=O)[C@H](NC(=O)OC(C)(C)C)c6ccccc6)[nH]5)cc4)ncc3c2)[nH]1)C1CCOCC1 [compound 118],< 1 nM,–,–
COC(=O)N[C@H](C(=O)N1CCC[C@H]1c1ncc(-c2ccc(-c3ccc4cc(-c5c[nH]c([C@@H]6CCCN6C(=O)[C@H](NC(=O)OC)c6ccccc6)n5)cnc4c3)cn2)[nH]1)C(C)C [compound 94],< 1 nM,–,–
COC(=O)N[C@H](C(=O)N1CCC[C@H]1c1nc(-c2ccc3cc(-c4ccc(-c5cnc([C@@H]6CCCN6C(=O)[C@H](NC(=O)OC)c6ccccc6)[nH]5)cc4)ncc3c2)c[nH]1)C1CCOCC1 [compound 100],< 1 nM,–,–
COC(=O)N[C@H](C(=O)N1CCC[C@H]1c1ncc(-c2ccc(-c3ccc4cc(-c5cnc([C@@H]6CCCN6C(=O)[C@H](NC(=O)OC6CCOCC6)c6ccccc6)[nH]5)ccc4n3)cc2F)[nH]1)C(C)C [compound 125],< 1 nM,–,–
COC(=O)N[C@H](C(=O)N1CCC[C@H]1c1nc(-c2cnc3cc(-c4ccc(-c5cnc([C@@H]6CCCN6C(=O)[C@H](NC(=O)OC6CCOCC6)c6ccccc6)[nH]5)cc4)ccc3c2)c[nH]1)C(C)C [compound 88],< 1 nM,–,–
COC(=O)N[C@H](C(=O)N1CCC[C@H]1c1ncc(-c2ccc3cc(-c4ccc5nc([C@@H]6CCCN6C(=O)[C@@H](NC(=O)OC)C6CCCCC6)[nH]c5c4)nnc3c2)[nH]1)C1CCCCC1 [compound 400],–,–,EC50 [2]: < 1 nM
COC(=O)N[C@@H](C(=O)N1CCC[C@H]1CNC(=O)c1ccc(-c2ccc3cc(-c4cnc([C@@H]5CCCN5C(=O)[C@H](NC(=O)OC)c5ccccc5)[nH]4)ccc3n2)cc1)c1ccccc1 [compound 545],–,< 1 nM,–
COC(=O)N[C@@H](C)C(=O)N1CCC[C@H]1c1nc2ccc(-c3ccc4cc(-c5ccc6nc([C@@H]7CCCN7C(=O)[C@H](C)NC(=O)OC)[nH]c6c5)ccc4c3)cc2[nH]1 [compound 278],< 1 nM,–,–
COC(=O)N[C@H](C(=O)N1CCC[C@H]1c1nc(-c2ccc3nc(C45CCC(c6cnc([C@@H]7CCCN7C(=O)[C@@H](NC(=O)OC)C7CC7)[nH]6)(CC4)CC5)ccc3c2)c[nH]1)C1CC1 [compound 265],< 1 nM,–,–
COC(=O)N[C@H](C(=O)N1CCC[C@H]1c1ncc(-c2ccc(N3Cc4cc(-c5cnc([C@@H]6CCCN6C(=O)[C@@H](NC(=O)OC)C(C)C)[nH]5)ccc4C3=O)cc2)[nH]1)C(C)C [compound 290],< 1 nM,–,–
CC[C@@H](C)[C@H](NC(=O)OC)C(=O)N1CCC[C@H]1c1ncc(-c2ccc3cc(-c4ccc5nc([C@@H]6CCCN6C(=O)[C@@H](NC(=O)OC)[C@H](C)CC)[nH]c5n4)ccc3c2)[nH]1 [compound 522],–,< 1 nM,–
COC(=O)N[C@@H](C)C(=O)N1CCC[C@H]1c1ncc(-c2ccc3nc(-c4ccc(-c5cnc([C@@H]6CCCN6C(=O)[C@H](NC(=O)OC)c6ccccc6)[nH]5)cc4)ccc3c2)[nH]1 [compound 491],–,< 1 nM,–
